Data: US20180235213A1, “PLANT HORMONE APPLICATION” (The State of Israel Ministry of Agriculture & Rural …, priority 2015, published 2018)

System: Tomato (Ikram cultivar)
Test: EGO10 collar combined with auxin spray on tomato
Format: in vivo, Solanum lycopersicum
Description: The effect of EGO 10 combined with auxin was tested. […] Collar was applied 50 μM of EGO10 (FIG. 32) with a auxin daily spray (IAA) 5 ppm on the shoot tip. Also treatment with only the 50 μM collar of EGO10, an IAA treatment with no collar as a control for the auxin treatment and a control with no treatment were applied. Each treatment consisted of 10-12 plants, blocks of 4 plants were randomly distributed in the greenhouse.

CC1=C[C@H](O/C=C2\Cc3c(n(C)c4ccccc34)C2=O)OC1=O [EGO10]
bud outgrowth above the collar (50 μM collar only): more moderate and not consistent respond
bud outgrowth above the collar (50 μM collar with auxin (IAA) daily spray 5 ppm): clear inhibition of bud outgrowth
